# Literature values as cited in PubChem BioAssay AID1259409 (Chemical Carcinogenesis Research Information System (CCRIS), 2018).
# Test system: rodent chemically induced tumor inhibition, incidence and multiplicity
# Test: CCRIS tumor inhibitor studies
# Conditions: Dose [Inhibitor]: 0, Route [Inhibitor]: ORAL, Promoter: NONE USED
structure (smiles),measurement,setting,value
CC1=C(/C=C/C(C)=C/C=C/C(C)=C/C=C/C=C(C)/C=C/C=C(C)/C=C/C2=C(C)CCCC2(C)C)C(C)(C)CCC1,"tumour outcome (control, treated, inhibition, significance)","Carcinogen: N-ETHYL-N'-NITRO-N-NITROSOGUANIDINE, 4245-77-6, 0.005% PALM CAROTENE IN DRINKING WATER FOR 16 WK BEGINNING POST CARCINOGEN TREATMENT (STUDY DURATION: 20 WK), Species: MOUSE, Strain/Sex: C57BL/MALE, Target Tissue: Type of Lesion: DUODENUM: TUMOR, Dose [Carcinogen]: 100 MG/L IN DRINKING WATER FOR 4 WK","18/27 (67%), 8/16 (50%), 25%, not significant"
same,"tumour outcome (control, treated, inhibition, significance)","Carcinogen: N-ETHYL-N'-NITRO-N-NITROSOGUANIDINE, 4245-77-6, 0.05% PALM CAROTENE IN DRINKING WATER FOR 16 WK BEGINNING POST CARCINOGEN TREATMENT (STUDY DURATION: 20 WK), Species: MOUSE, Strain/Sex: C57BL/MALE, Target Tissue: Type of Lesion: DUODENUM: TUMOR, Dose [Carcinogen]: 100 MG/L IN DRINKING WATER FOR 4 WK","18/27 (67%), 11/28 (39%), 42%, p<0.05"
same,"tumour outcome (control, treated, inhibition, significance)","Carcinogen: N-METHYL-N'-NITRO-N-NITROSOGUANIDINE, 70-25-7, 0.4% IN DIET FOR 2 WK PRIOR TO FIRST CARCINOGEN DOSE FOLLOWED BY 0, 0.2% IN DIET FOR 25 WK (STUDY DURATION: 27 WK), 0.4% IN DIET FOR 2 WK PRIOR TO FIRST CARCINOGEN DOSE FOLLOWED BY 0, 0.2% IN DIET FOR 25 WK (STUDY DURATION: 27 WK), Species: RAT, Strain/Sex: WISTAR/MALE, Target Tissue: Type of Lesion: COLON: ADENOCARCINOMA, Dose [Carcinogen]: 0.15 ML OF A 13.4 MG/ML SOLUTION IN DISTILLED WATER 2/WK FOR 3 WK","34/36 (94%), 34/35 (97%), -3%, not calculated"
same,"tumour outcome (control, treated, inhibition, significance)","Carcinogen: N-METHYL-N'-NITRO-N-NITROSOGUANIDINE, 70-25-7, 0.4% IN DIET FOR 2 WK PRIOR TO FIRST CARCINOGEN DOSE FOLLOWED BY 0, 0.2% IN DIET FOR 25 WK (STUDY DURATION: 27 WK), 0.4% IN DIET FOR 2 WK PRIOR TO FIRST CARCINOGEN DOSE FOLLOWED BY 0, 0.2% IN DIET FOR 25 WK (STUDY DURATION: 27 WK), Species: RAT, Strain/Sex: WISTAR/MALE, Target Tissue: Type of Lesion: COLON: ADENOMA, Dose [Carcinogen]: 0.15 ML OF A 13.4 MG/ML SOLUTION IN DISTILLED WATER 2/WK FOR 3 WK","17/36 (47%), 24/35 (69%), -47%, not calculated"
same,"tumour outcome (control, treated, inhibition, significance)","Carcinogen: N-METHYL-N'-NITRO-N-NITROSOGUANIDINE, 70-25-7, 0.4% IN DIET FOR 2 WK PRIOR TO FIRST CARCINOGEN DOSE FOLLOWED BY 0, 0.2% IN DIET FOR 52 WK (STUDY DURATION: 54 WK), 0.4% IN DIET FOR 2 WK PRIOR TO FIRST CARCINOGEN DOSE FOLLOWED BY 0, 0.2% IN DIET FOR 52 WK (STUDY DURATION: 54 WK), Species: RAT, Strain/Sex: WISTAR/MALE, Target Tissue: Type of Lesion: GLANDULAR STOMACH: ADENOCARCINOMA, Dose [Carcinogen]: 80 UG/ML IN DRINKING WATER FOR 52 WK","7/36 (19%), 4/35 (11%), 42%, not calculated"
same,outcome,"Carcinogen: N-METHYL-N'-NITRO-N-NITROSOGUANIDINE, 70-25-7, 0.4% IN DIET FOR 2 WK PRIOR TO FIRST CARCINOGEN DOSE FOLLOWED BY 0, 0.2% IN DIET FOR 52 WK (STUDY DURATION: 54 WK), 0.4% IN DIET FOR 2 WK PRIOR TO FIRST CARCINOGEN DOSE FOLLOWED BY 0, 0.2% IN DIET FOR 52 WK (STUDY DURATION: 54 WK), Species: RAT, Strain/Sex: WISTAR/MALE, Target Tissue: Type of Lesion: GLANDULAR STOMACH: LEIOMYOSARCOMA, Dose [Carcinogen]: 80 UG/ML IN DRINKING WATER FOR 52 WK","0/36 (0%), 2/35 (6%), -600%, not calculated"
same,"tumour outcome (control, treated, inhibition, significance)","Carcinogen: N-METHYL-N'-NITRO-N-NITROSOGUANIDINE, 70-25-7, 0.4% IN DIET FOR 2 WK PRIOR TO FIRST CARCINOGEN DOSE FOLLOWED BY 0, 0.2% IN DIET FOR 52 WK (STUDY DURATION: 54 WK), 0.4% IN DIET FOR 2 WK PRIOR TO FIRST CARCINOGEN DOSE FOLLOWED BY 0, 0.2% IN DIET FOR 52 WK (STUDY DURATION: 54 WK), Species: RAT, Strain/Sex: WISTAR/MALE, Target Tissue: Type of Lesion: SMALL INTESTINE: ADENOCARCINOMA, Dose [Carcinogen]: 80 UG/ML IN DRINKING WATER FOR 52 WK","10/36 (28%), 17/35 (49%), -75%, p= 0.12"
same,"tumour outcome (control, treated, inhibition, significance)","Carcinogen: N-METHYL-N'-NITRO-N-NITROSOGUANIDINE, 70-25-7, 0.4% IN DIET FOR 2 WK PRIOR TO FIRST CARCINOGEN DOSE FOLLOWED BY 0, 0.2% IN DIET FOR 52 WK (STUDY DURATION: 54 WK), 0.4% IN DIET FOR 2 WK PRIOR TO FIRST CARCINOGEN DOSE FOLLOWED BY 0, 0.2% IN DIET FOR 52 WK (STUDY DURATION: 54 WK), Species: RAT, Strain/Sex: WISTAR/MALE, Target Tissue: Type of Lesion: SMALL INTESTINE: ADENOMA, Dose [Carcinogen]: 80 UG/ML IN DRINKING WATER FOR 52 WK","1/36 (3%), 0/35 (0%), 100%, not calculated"
same,"tumour outcome (control, treated, inhibition, significance)","Carcinogen: N-METHYL-N'-NITRO-N-NITROSOGUANIDINE, 70-25-7, 0.4% IN DIET FOR 2 WK PRIOR TO FIRST CARCINOGEN DOSE FOLLOWED BY 0, 0.2% IN DIET FOR 52 WK (STUDY DURATION: 54 WK), 0.4% IN DIET FOR 2 WK PRIOR TO FIRST CARCINOGEN DOSE FOLLOWED BY 0, 0.2% IN DIET FOR 52 WK (STUDY DURATION: 54 WK), Species: RAT, Strain/Sex: WISTAR/MALE, Target Tissue: Type of Lesion: SMALL INTESTINE: ANGIOSARCOMA, Dose [Carcinogen]: 80 UG/ML IN DRINKING WATER FOR 52 WK","3/36 (8%), 6/35 (17%), -113%, not calculated"
